From patent US20050101542A1, “Combination therapy for controlling appetites” (Regents of the University of California, priority 2002, published 2005) come the findings set out here.

“Also recorded” adds a separate entry of the source.

Series [1] is described as follows: Food intake in capsaicin-treated (sensory deafferented) rats, Example 2. The series is classed as in vivo, rat. The conditions noted are these: OEA 10 mg per kg i.p.
Protocol: FAE were dissolved in dimethylsulphoxide (DMSO) and administered in 70% DMSO in sterile saline (acute treatments) Or 5% Tween 80/5% propylenglycol in sterile saline (subchronic treatments) (1 ml per kg, i.p.). Capsaicin was administered in 10% Tween 80/10% ethanol/80% saline; SR141716A, SR144528, CCK-8 and CP-93129 in 5% Tween 80/5% propylenglycol/90% saline (1 ml per kg, i.p.).
Series [2] can be described thus: Capsaicin sensory deafferentation and feeding, Example 8. The conditions noted are these: CCK-8 10 μg/kg, CP 93129 1, WIN 55,212-2 2, anandamide 2, SR141716A 3 mg/kg, i.p. The format is in vivo, rat. The procedure: Capsaicin was administered subcutaneously (12.5 mg/ml, Kaneko, et al., Am. J. Physiol., 275:G1056-G1062 (1998)) in rats anesthetized with ethyl ether. The total dose of capsaicin (125 mg/kg) was divided into three injections (25 mg/kg in the morning and 50 mg/kg in the afternoon of the first day, 50 mg/kg on the 2nd day). Control rats received vehicle injections. […] Water intake (in ml/4 hr) was: vehicle 13.6±1.4; capsaicin rats 24.0±1.9, P<0.01 (n=12).
The can was retired and intake was recorded.

Series [3] is described as follows: Acute feeding experiments in free-feeding mice (C57BL/6J, wild-type, PPARα-null). The format is in vivo, mouse. The settings on record: for meal pattern analysis (eating latency, meal size, post-meal interval): C57BL/6J mice; for food intake in C57BL/6J mice: i.p., Wy-14643 40, GW7647 20, clofibrate 25-100, GW501516 1-10, ciglitazone 15 mg kg^−1; for feeding in PPARα-deficient mice: OEA 10, Wy-14643 40, d-fenfluramine 4 mg-kg^−1, CCK-8 25 μg-kg^−1, i.p. As for the experimental part:
Acute experiments. Drugs or appropriate vehicles (saline, for CCK-8 and d-fenfluramine; dimethylsulfoxide/saline, 70/30, for all other agents; 4 ml-kg^−1; i.p.) were administered at 5:00-5:30 PM to free-feeding mice, which were habituated to the experimental setting.

Series [4] is described as follows: Acute food intake in 24-h food-deprived rats, i.p. dosing. The series is classed as in vivo, rat. The settings on record: 24-h food-deprived rats, i.p. The procedure:
Feeding experiments. Acute experiments. Food intake was measured in 24-h food-deprived rats (Navarro, et al., J. Neurochem., 67:1982-1991 (1996)), administering drugs 15 min before food presentation. Subchronic experiments. Ad libitum fed rats received vehicle injections for three days. On day four, the animals were divided in two equal groups and gave them daily injections of vehicle or OEA (5 mg per kg at 1900 h) for 7 consecutive days, while measuring body weight, food intake and water intake.
The effects of systemically administered OEA or an OEA-like compound or OEA-like modulator on food intake in rats can be assessed using a 24 h fast. […] To define the selectivity of this response, various OEA analogs were evaluated for their ability to produce hypophagia.

Series [5] concerns Soleus muscle. As to the kind of experiment: [14C]oleate oxidation to CO2 in soleus muscle. The series is classed as cell-based, rat. From the text:
This example illustrates the effect of OEA on fat metabolism and methods for studying the same. Oleoylethanolamide (OEA) decreases body weight not only by suppressing appetite, but also by possibly enhancing body fat catabolism. The effects of OEA on fatty acid oxidation in major body-fat burning tissues (soleus muscle, liver, cultured cardiac myocytes and astrocytes) was examined. […] In addition, OEA induces a significant mobilization of triacylglycerol stores from primary white adipose tissue cells. Table 4 details the methods and effects of OEA on fatty acid oxidation in these cells. Structure-activity relationship experiments provide evidence that the effect of OEA on skeletal muscle fatty acid oxidation is specific (FIG. 8).

The nature of series [6]: Food intake studies in food-deprived or partially satiated rats (i.p. or i.c.v.), Example 8. The settings on record: for food intake in partially satiated rats, systemic (i.p.) administration: 24 h food-deprived, allowed to eat 60 min before drug; for food intake in 24 h food-deprived rats, systemic (i.p.) administration: anandamide or WIN 55,212-2 0.1-2 mg/kg.
Protocol: Drugs were administered by i.p. injection 15 min prior to food presentation in a volume of 1 ml/kg. For i.c.v. administration the obturator was removed from the guide cannula and an 8-mm injector (30-gauge stainless steel tubing) that was connected to 70 cm of calibrated polyethylene-10 tubing was lowered into the ventricle. The tubing was then raised until flow began and 5 μl of drug solution were infused over a 30-60 s period. The injector was left in the guide cannula for additional 30 s and then removed. The stylet was immediately replaced. Animals were tested 5 min after injections. The i.c.v. cannula placements were evaluated after each experiment by dye injection. Only those rats with proper i.c.v. placements were included in the data analysis.
The animals were then food-deprived for 24 h, with free access to water. 15 min after drug administration, the animals were returned to their home cage, where a can with a measured amount of food (usually 30-40 g) a bottle containing 250 ml of fresh water were placed. Food pellets and food spillage were weighed at 60,120 and 240 min after starting the test, and the amount of food eaten was recorded. At the end of the test, the amount of water consumed was also measured. For partial satiation of animals, 24 h food-deprived rats were allowed to eat from the can during 1 h. The can was retired and intake was recorded. 15 min after drug injections, the food was again presented, and the amount consumed was recorded hourly for the following 4 h.
Series [7] in a line: Open field test. The format is in vivo, rat. The procedure:
Rats were habituated to the field for 10 min the day before testing. On the experimental day, the animals were placed in the center of the field and locomotor activity (number of lines crossed) and exploratory behavior (number of rearings and time spent in the center of the field) were scored for 5 min. All the experiments were performed 60 min after drug injections, and behavior was scored by trained observers blind to experimental conditions.

Series [8] concerns iNOS. As to the kind of experiment: Transrepression of iNOS expression in mouse jejunum. The series is classed as in vivo. The settings on record: jejunum of C57BL/6J mice; OEA or oleic acid 10, Wy-14643 30 mg kg^−1 i.p. The procedure:
(§1) Tissues were stored in RnaLater™ (Ambion), extracted total RNA with TRIzol™ (Invitrogen) and quantified it with Ribogreen™ (Molecular Probes). cDNA was synthesized by using SuperscriptII RNase H-reverse transcriptase (Invitrogen).
(§2) Reverse transcription of total RNA (2 μg) was performed using Oligo(dT)12-18 primer (0.2 μg) for 50 min at 42° C. Real Time Quantitative (RTQ) PCR was conducted using an ABI PRISM 7700 sequence detection system (Applied Biosystems). Primer/probe sets were designed using the Primer Express™ software and gene sequences available from the Genebank™ database. Primers and fluorogenic probes were synthesized by TIB (Adelphia). The primer/probe sequences for the mouse genes were:
(§3) RNA levels were normalized by using glyceraldehyde 3-phosphate dehydrogenase (GAPDH) as an internal standard. mRNA levels were measured by generating six-point serial standard curves using mouse total RNA. Estimates of relative mRNA abundance (in arbitrary units) were made by using the CT value (Schmittgen et al., 2000). Relative quantifications of RNAs of interest were made by using the 2^ΔCT formula, in which ΔCT was calculated by subtracting the CT value for GAPDH from the CT value for the gene of interest. This formula was validated for each primer/probe set by using six-point serial standard curves.

A short description of series [9]: Food intake in vagotomized or capsaicin-treated rats, Example 3. The series is classed as in vivo, rat. The conditions noted are these: for food intake 30 min / food intake 60 min / food intake 120 min / food intake 240 min: 24-h food-deprived, Wy-14643 40 mg kg^−1 i.p.; for food intake after vagotomy or capsaicin treatment: rats, OEA 10, Wy-14643 40 mg kg^−1 i.p.

Series [10] concerns PPAR-α-regulated genes. As to the kind of experiment: Real time quantitative PCR of gene expression in mouse intestine and liver. The format is in vivo. The settings on record: for expression of PPAR-α-regulated genes (PPAR-α, FAT/CD36, FATP1): jejunum of wild-type mice, OEA or oleic acid 10, Wy-14643 30 mg kg^−1 i.p. The procedure:
as §1, §2, §3

Series [11] addresses T1, human PPARα (Homo sapiens, UniProt Q07869).
T1 construct: expressed in transfected cells; host or cells: HeLa (clonal reporter line HLR, stably transfected with pFA-PPARα)
T1 sequence (Q07869 239-466 limits assumed): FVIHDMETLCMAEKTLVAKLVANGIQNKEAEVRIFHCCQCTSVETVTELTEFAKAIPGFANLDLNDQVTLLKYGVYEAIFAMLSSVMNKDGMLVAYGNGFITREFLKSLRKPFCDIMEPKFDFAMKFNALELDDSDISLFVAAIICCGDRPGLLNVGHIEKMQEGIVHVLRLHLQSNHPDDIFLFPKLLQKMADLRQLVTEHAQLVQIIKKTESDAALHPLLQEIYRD
As to the kind of experiment: GAL4 chimeric receptor transactivation assay in HeLa cells, PPARα. The format is cell-based. The settings on record: for PPARα activation: HeLa transactivation assay. As for the experimental part:
Eighteen hours following transfection, the culture media was replaced with supplemented DMEM containing hygromycin (100 μg-ml^−1, Calbiochem). After 4 weeks in culture, the surviving clones were isolated and analyzed by luciferase assay. […] The cells were cultured in supplemented DMEM containing hygromycin and G418. For transactivation assays, cells were seeded in 6-well plates (50,000 cells per well) and incubated for 7 hours in supplemented DMEM containing hygromycin and G418, plus appropriate concentrations of test compounds. Dual-luciferase reporter assay system (Promega) and an MLX Microtiter® plate luminometer (Dynex) were used to determine luciferase activity in cell lysates.

Regarding `O=c1ccc2[nH]cc(C3=CCNCC3)c2[nH]1` [CP-93129], in [1], the “feeding response in capsaicin-treated rats” value was “responded normally”. For the same molecule, in [2], the “effect of capsaicin treatment on the drug's feeding response” value (“effect of capsaicin treatment” for short) is listed as “not”.

In the case of `CC(C)(Sc1ccc(CCN(CCCCC2CCCCC2)C(=O)NC2CCCCC2)cc1)C(=O)O` [GW7647, 2-(4-{2-[3-Cyclohexyl-1-(4-cyclohexyl-butyl)-ureido]-ethyl}-phenylsulfanyl)-2-methyl-propionic acid], in [3], the “meal pattern analysis (eating latency, meal size, post-meal interval)” value was “selective prolongation of eating latency” and the “food intake in C57BL/6J mice” value is given as “inhibited food intake”.

For the molecule `Cc1cc(SCc2sc(-c3ccc(C(F)(F)F)cc3)nc2C)ccc1OCC(=O)O` [GW501516, [2-Methyl-4-[4-methyl-2-(4-trifluoromethyl-phenyl)-thiazol-5-ylmethylsulfanyl]-phenoxy}-acetic acid], the “food intake in C57BL/6J mice” value in series [3] is “did not affect feeding; also recorded: Lack of effect”.

Consider `CCCCCCCCCCCCCCCC(=O)NCCO` [Palmitoylethanolamide, palmitoylethanolamide], for which the “food intake (hypophagia)” value in series [4] was “active but significantly less potent than OEA”. Moreover, the “mimicry of the OEA effect on skeletal muscle fatty acid oxidation” value in series [5] is reported as “only partially”.

With `Cc1c(C(=O)NN2CCCCC2)nn(-c2ccc(Cl)cc2Cl)c1-c1ccc(Cl)cc1` [SR141716A, N-piperidino-5-(4-chlorophenyl)-1-(2,4-dichlorophenyl)-4-methylpyrazole-3-carboxamide], in [6], the “food intake in partially satiated rats, systemic (i.p.) administration” value is reported as “dose-dependent reduction of food intake”; the “food intake in 24 h food-deprived rats, systemic (i.p.) administration” value was “dose-dependent reduction of food intake; also recorded: reduced food intake”; the “food intake after central (i.c.v.) administration” value was “no effect; also recorded: did not affect food intake”. The “rearing frequency in the open field” value in series [7] (i.c.v. SR141716A 10 μg, i.c.v. vehicle 16.6±3.1) is recorded as 4.9±1.1 number of events per 5 min. The “rearing frequency in the open field” value in [7] (i.p. SR141716A 3 mg/kg, i.p. vehicle 17.9±2.3) was 9.4±2.0 number of events per 5 min. Besides, the “exploratory behavior in the open field” value in series [7] (irrespective of the administration route) is “reduced exploratory behavior”. Further, the “effect of capsaicin treatment” value in series [2] is “loss and abolishes the reduction of food intake”.

For `Cc1c(C(=O)c2cccc3ccccc23)c2cccc3c2n1[C@H](CN1CCOCC1)CO3` [WIN 55,212-2], in [6] (10 μg i.c.v.), the “motor effect at the highest central dose” value is “motor impairment”. Further, the immobility entry in series [6] (10 mg/kg i.p.) is given as “profound immobility”. Besides, in series [6], the “food intake in partially satiated rats, systemic (i.p.) administration” value is “significant and prolonged hyperphagia; also recorded: promoted hyperphagia”; the “food intake in 24 h food-deprived rats, systemic (i.p.) administration” value was “no effect”; the “food intake after central (i.c.v.) administration” value is recorded as “no effect on feeding”. For the same molecule, the “effect of capsaicin treatment” value in [2] was “loss of the hyperphagic effects; also recorded: did not produce hyperphagia”.

Turning to `Cc1cccc(Nc2cc(Cl)nc(SCC(=O)O)n2)c1C` [Wy-14643], in series [3], the “meal pattern analysis (eating latency, meal size, post-meal interval)” value was “selective prolongation of eating latency”; the “feeding in PPARα-deficient mice” value is “did not respond”; the “food intake in C57BL/6J mice” value is “inhibited food intake”. In [8], the iNOS expression entry is on record as “significantly decreased”. For the same molecule, in series [9] (capsaicin-treated rats), the “food intake 30 min” value is reported as 2.2 ± 1.2, the “food intake 60 min” value worked out at 3.7 ± 1.6, the “food intake 120 min” value turned out to be 4.9 ± 1.5 and the “food intake 240 min” value amounted to 7.8 ± 1.9. In [9] (control rats), the “food intake 30 min” value was found to be 2.3 ± 1.3, the “food intake 60 min” value came to 3.6 ± 1.2, the “food intake 120 min” value is recorded as 5.8 ± 1.3 and the “food intake 240 min” value is 6.4 ± 1.8. Moreover, the “food intake after vagotomy or capsaicin treatment” value in series [9] is given as “prevented the hypophagic effects”. Besides, the “expression of PPAR-α-regulated genes (PPAR-α, FAT/CD36, FATP1)” value in series [10] was “mimicked the effects of OEA”. Also, in series [10] (jejunum, OEA 10, Wy-14643 30 mg kg^−1 i.p.), the “gene expression in mice deficient in PPAR-α” value is given as “did not stimulate gene expression”.

For `CCOC(=O)C(C)(C)Oc1ccc(Cl)cc1` [clofibrate, 2-(4-chlorophenoxy)-2-methylpropanoic acid, ethyl ester], the “food intake in C57BL/6J mice” value in [3] is “did not”.

Regarding `CCN[C@@H](C)Cc1cccc(C(F)(F)F)c1` [d-fenfluramine], the “feeding in PPARα-deficient mice” value in series [3] is “responded normally”. The “food intake after vagotomy or capsaicin treatment” value in [9] was “not”.

`CCCCCCCCCCCCCC(=O)NCCO` [myristylethanolamide]: in [11], the PPARα activation result is given as “ineffective”.

The EC50 is the concentration at which the effect is half-maximal. Higher therefore signals weaker potency. Regarding `CCCCCCCC/C=C\CCCCCCCC(=O)O` [oleic acid], in [8], the iNOS expression entry is “ineffective”. The EC50 in series [11] stood at 10.3 ± 0.21 µM. Also, in series [4], the “food intake (hypophagia)” value is listed as “no effect”. Further, the “expression of PPAR-α-regulated genes (PPAR-α, FAT/CD36, FATP1)” value in [10] is given as “not”. Besides, the “mimicry of the OEA effect on skeletal muscle fatty acid oxidation” value in series [5] is on record as “not”.

Consider `CCCCCCCCCCCCCCCCCC(=O)NCCO` [stearylethanolamide], for which the PPARα activation result in [11] is reported as “did not elicit a response”.

For the molecule CCK-8, the “feeding in PPARα-deficient mice” value in series [3] is “responded normally”. Also, in [1], the “feeding response in capsaicin-treated rats” value was “failed to respond”. In [2], the “effect of capsaicin treatment” value is reported as “abolished the anorexic response; also recorded: abolished the anorexic effect”.
